Active and inactive are the calls of the source. The calls are words filed in the database; no cut-off is given here.

Series [1] relates to Mus musculus. Description: Neuroprotective effect in Kunming mouse assessed as reversal of scopolamine-induced increase in AChE activity in hippocampus at 0.1 mg/kg, po qd administered for 15 days followed by 1 hr prior to trial session for 6 days. In kind it is functional, organism-based. Also noted: dose 0.1 mg/kg.
Series [2] concerns Mus musculus. Description: Neuroprotective effect in Kunming mouse assessed as reversal of scopolamine-induced reduction in ACh level in hippocampus at 0.1 mg/kg, po qd administered for 15 days followed by 1 hr prior to trial session for 6 days. In kind it is functional, organism-based. Also on record: dose 0.1 mg/kg.
In series [3] the test system is Mus musculus. Description: Neuroprotective effect in Kunming mouse assessed as increase in scopolamine-induced reduction in SOD level in hippocampus at 0.1 mg/kg, po qd administered for 15 days followed by 1 hr prior to trial session for 6 days relative to control. In kind it is functional, organism-based. Also noted: dose 0.1 mg/kg.
Series [4] has as its system Mus musculus. Description: Neuroprotective effect in Kunming mouse assessed as increase in scopolamine-induced reduction in time spent in target quadrant at 0.1 mg/kg, po qd administered for 15 days followed by 1 hr prior to trial session for 6 days measured at day 5 by Morris water maze test relative to sham control. In kind it is functional, organism-based. Also noted: dose 0.1 mg/kg.

Series [5] relates to Mus musculus. Description: Neuroprotective effect in Kunming mouse assessed as reduction in scopolamine-induced increase in MDA level in hippocampus at 0.1 mg/kg, po qd administered for 15 days followed by 1 hr prior to trial session for 6 days relative to control. In kind it is functional, organism-based. Also noted: dose 0.1 mg/kg.
The test system of series [6] is Mus musculus. Description: Neuroprotective effect in Kunming mouse assessed as increase in scopolamine-induced reduction in time spent in platform crossing at 0.1 mg/kg, po qd administered for 15 days followed by 1 hr prior to trial session for 6 days measured at day 5 by Morris water maze test relative to sham control. Format: functional, organism-based. Also noted: dose 0.1 mg/kg.

For series [7], the system named is Mus musculus. Description: Neuroprotective effect in Kunming mouse assessed as reduction in scopolamine-induced escape latency at 0.1 mg/kg, po qd administered for 15 days followed by 1 hr prior to trial session for 6 days by Morris water maze test. In kind it is functional, organism-based. Also on record: dose 0.1 mg/kg.
The test system of series [8] is Mus musculus. Description: Neuroprotective effect in Kunming mouse assessed as increase in scopolamine-induced reduction in GPx level in hippocampus at 0.1 mg/kg, po qd administered for 15 days followed by 1 hr prior to trial session for 6 days relative to control. In kind it is functional, organism-based. Also noted: dose 0.1 mg/kg.
In series [9] the test system is PC-12. Description: Inhibition of H2O2-induced NO production in rat PC12 cells incubated for 24 hrs prior to H2O2 challenge measured after 2 hrs relative to control. In kind it is functional, cell-based.
For series [10], the system named is Mus musculus. Description: Neuroprotective effect in Kunming mouse assessed as reduction in scopolamine-induced escape latency at 100 mg/kg, po qd administered for 15 days followed by 1 hr prior to trial session for 6 days by Morris water maze test. In kind it is functional, organism-based. Also on record: dose 100 mg/kg.
Series [11] concerns Mus musculus. Description: Neuroprotective effect in po dosed Kunming mouse assessed as increase in scopolamine-induced reduction in time spent in platform crossing administered qd for 15 days followed by 1 hr prior to trial session for 6 days by Morris water maze test. Format: functional, organism-based.
Series [12] concerns Mus musculus. Description: Neuroprotective effect in po dosed Kunming mouse assessed as increase in scopolamine-induced reduction in time spent in target quadrant administered qd for 15 days followed by 1 hr prior to trial session for 6 days by Morris water maze test. In kind it is functional, organism-based.
The subject of series [13] is Mus musculus. Description: Neuroprotective effect in Kunming mouse assessed as increase in scopolamine-induced reduction in time spent in platform crossing at 50 to 100 mg/kg, po qd administered for 15 days followed by 1 hr prior to trial session for 6 days measured at day 5 by Morris water maze test relative to sham control. Format: functional, organism-based.
For series [14], the system named is Mus musculus. Description: Neuroprotective effect in Kunming mouse assessed as reduction in scopolamine-induced increase in MDA level in hippocampus at 25 to 100 mg/kg, po qd administered for 15 days followed by 1 hr prior to trial session for 6 days relative to control. Format: functional, organism-based.
Series [15] concerns Mus musculus. Description: Neuroprotective effect in Kunming mouse assessed as reduction in scopolamine-induced impairment in spatial learning and memory at 25 to 100 mg/kg, po qd administered for 15 days followed by 1 hr prior to trial session for 6 days measured at day 5 by Morris water maze test relative to sham control. Format: functional, organism-based.
Series [16] relates to PC-12. Description: Inhibition of H2O2-induced NO production in rat PC12 cells at 10 ug/ml incubated for 24 hrs prior to H2O2 challenge measured after 2 hrs relative to control. In kind it is functional.
The target of series [17] is T1, Acetylcholinesterase (Homo sapiens, UniProt P22303). Description: Inhibition of AChE (unknown origin) by Ellman's method. In general terms: Ellman's reagent forms a yellow product with free thiols.
Series [18] deals with PC-12. Description: Inhibition of intracellular ROS generation in rat PC12 cells at 5 ug/ml incubated for 24 hrs prior to H2O2 challenge measured after 2 hrs by fluorescence assay relative to control. Format: functional. The note with it: values are per cent of control.
Series [19] deals with Mus musculus. Description: Neuroprotective effect in Kunming mouse assessed as increase in scopolamine-induced reduction in GPx level in hippocampus at 25 to 100 mg/kg, po qd administered for 15 days followed by 1 hr prior to trial session for 6 days relative to control. In kind it is functional, organism-based.
The test system of series [20] is PC-12. Description: Inhibition of H2O2-induced NO production in rat PC12 cells at 20 ug/ml incubated for 24 hrs prior to H2O2 challenge measured after 2 hrs relative to control. Format: functional.
The test system of series [21] is Mus musculus. Description: Neuroprotective effect in Kunming mouse assessed as reversal of scopolamine-induced effect on spatial memory performance at 100 mg/kg, po qd administered for 15 days followed by 1 hr prior to trial session for 6 days by Morris water maze test relative to sham control. Format: functional, organism-based. Also noted: dose 100 mg/kg.
The subject of series [22] is PC-12. Description: Inhibition of H2O2-induced NO production in rat PC12 cells at 5 ug/ml incubated for 24 hrs prior to H2O2 challenge measured after 2 hrs relative to control. In kind it is functional.
The test system of series [23] is Mus musculus. Description: Neuroprotective effect in Kunming mouse assessed as increase in scopolamine-induced reduction in swim speed at 25 to 100 mg/kg, po qd administered for 15 days followed by 1 hr prior to trial session for 6 days measured at day 5 by Morris water maze test relative to sham control. In kind it is functional, organism-based.
A short description of series [24]: Cytoprotective effect against H2O2-induced cell death in rat PC12 cells at 20 ug/ml incubated for 24 hrs prior to H2O2 challenge measured after 2 hrs by MTT assay. In kind it is functional, PC-12. (In general: Tetrazolium dyes change colour on reduction, which living cells bring about.)
Series [25] concerns PC-12. Description: Inhibition of intracellular ROS generation in rat PC12 cells at 10 ug/ml incubated for 24 hrs prior to H2O2 challenge measured after 2 hrs by fluorescence assay relative to control. Format: functional. The conditions noted are these: values are per cent of control.
Series [26] relates to PC-12. Description: Inhibition of H2O2-induced LDH release in rat PC12 cells at 5 to 20 ug/ml incubated for 24 hrs prior to H2O2 challenge measured after 2 hrs relative to control. In kind it is functional, cell-based. Background: LDH in the medium is a marker of cell lysis.
The test system of series [27] is Mus musculus. Description: Neuroprotective effect in Kunming mouse assessed as reversal of scopolamine-induced reduction in ACh level in hippocampus at 25 to 100 mg/kg, po qd administered for 15 days followed by 1 hr prior to trial session for 6 days. Format: functional, organism-based.
Series [28] concerns Mus musculus. Description: Neuroprotective effect in Kunming mouse assessed as increase in scopolamine-induced reduction in SOD level in hippocampus at 25 to 100 mg/kg, po qd administered for 15 days followed by 1 hr prior to trial session for 6 days relative to control. In kind it is functional, organism-based.
Series [29] is described as follows: Cytotoxicity against rat PC12 cells at 1 to 20 ug/ml by MTT assay. The conditions noted are these: pc-12. In kind it is cell-based.
Series [30] has as its target T1, Acetylcholinesterase. The note with it: 40 ug/ml.
Description: Inhibition of AChE (unknown origin) at 40 ug/ml by Ellman's method
For series [31], the system named is Mus musculus. Description: Neuroprotective effect in po dosed Kunming mouse assessed as reduction in scopolamine-induced escape latency administered qd for 15 days followed by 1 hr prior to trial session for 6 days by Morris water maze test. In kind it is functional, organism-based.
Series [32] deals with Mus musculus. Description: Neuroprotective effect in Kunming mouse assessed as reversal of scopolamine-induced increase in AChE activity in hippocampus at 100 mg/kg, po qd administered for 15 days followed by 1 hr prior to trial session for 6 days relative to sham control. In kind it is functional, organism-based. Also on record: dose 100 mg/kg.
Series [33] can be described thus: Cytoprotective effect against H2O2-induced cell death in rat PC12 cells at 5 ug/ml incubated for 24 hrs prior to H2O2 challenge measured after 2 hrs by MTT assay. Format: functional, PC-12.
For series [34], the system named is PC-12. Description: Inhibition of intracellular ROS generation in rat PC12 cells at 20 ug/ml incubated for 24 hrs prior to H2O2 challenge measured after 2 hrs by fluorescence assay relative to control. In kind it is functional. The note with it: values are per cent of control.
Series [35] deals with Mus musculus. Description: Neuroprotective effect in Kunming mouse assessed as increase in scopolamine-induced reduction in time spent in target quadrant at 50 to 100 mg/kg, po qd administered for 15 days followed by 1 hr prior to trial session for 6 days measured at day 5 by Morris water maze test relative to sham control. Format: functional, organism-based.
For series [36], the system named is Mus musculus. Description: Neuroprotective effect in Kunming mouse assessed as reversal of scopolamine-induced increase in AChE activity in hippocampus at 25 to 100 mg/kg, po qd administered for 15 days followed by 1 hr prior to trial session for 6 days. Format: functional, organism-based.
Series [37] can be described thus: Cytoprotective effect against H2O2-induced cell death in rat PC12 cells at 10 ug/ml incubated for 24 hrs prior to H2O2 challenge measured after 2 hrs by MTT assay. Format: functional, PC-12.
Series [38] has as its system PC-12. Description: Inhibition of H2O2-induced LDH release in rat PC12 cells at 20 uM incubated for 24 hrs prior to H2O2 challenge measured after 2 hrs relative to control. In kind it is functional, cell-based.
The subject of series [39] is PC-12. Description: Inhibition of H2O2-induced NO production in rat PC12 cells at 20 uM incubated for 24 hrs prior to H2O2 challenge measured after 2 hrs relative to control. Format: functional, cell-based.
In series [40] the test system is PC-12. Description: Cytoprotective effect against H2O2-induced cell death in rat PC12 cells at 20 uM incubated for 24 hrs prior to H2O2 challenge measured after 2 hrs by MTT assay. In kind it is functional, cell-based.

T1 sequence (P22303 whole entry): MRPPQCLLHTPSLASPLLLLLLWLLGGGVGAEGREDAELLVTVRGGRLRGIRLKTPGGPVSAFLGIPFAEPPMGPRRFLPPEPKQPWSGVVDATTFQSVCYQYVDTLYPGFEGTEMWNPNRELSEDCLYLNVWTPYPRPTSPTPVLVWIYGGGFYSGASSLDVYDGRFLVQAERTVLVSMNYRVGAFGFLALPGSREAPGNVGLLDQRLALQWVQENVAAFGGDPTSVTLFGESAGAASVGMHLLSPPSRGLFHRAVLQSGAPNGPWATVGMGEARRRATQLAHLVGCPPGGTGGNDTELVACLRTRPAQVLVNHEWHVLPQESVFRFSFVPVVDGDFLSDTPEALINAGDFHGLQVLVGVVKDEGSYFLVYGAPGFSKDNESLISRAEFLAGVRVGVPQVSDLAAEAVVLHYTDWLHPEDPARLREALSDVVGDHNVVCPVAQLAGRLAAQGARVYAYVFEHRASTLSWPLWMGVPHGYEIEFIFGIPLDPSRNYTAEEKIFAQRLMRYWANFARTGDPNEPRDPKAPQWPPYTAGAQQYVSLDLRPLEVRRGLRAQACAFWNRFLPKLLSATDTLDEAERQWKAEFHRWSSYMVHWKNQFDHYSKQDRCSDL

In the case of `C/C=C1\[C@H]2C=C(C)C[C@]1(N)c1ccc(=O)[nH]c1C2`, the outcome in series [1], in [2], in series [3], in series [4], in [5] and in series [6] was Active. The result in [7] and in series [8] was Active.
`O=C1c2cccc(O)c2C(=O)c2c(O)cc(CO)cc21` [ALOE-EMODIN]: the figures for the inhibition result in series [9] and in series [30] were “Dose-dependent effect” and 70%, respectively. The outcome in series [10], in series [13], in series [14], in [15], in [19] and in [21] was Active. Further, the outcome in series [23], in series [27], in series [28], in series [35] and in series [36] was Active. The Activity entry in [11] was “Dose-dependent effect”; in series [12], “Dose-dependent effect”; in series [24] it was 88.7%; in [29], “Non-toxic”; in series [31] it was “Dose-dependent effect”; in [33], 72.9%. Further, the Activity in [37] is 81%. In series [16], the inhibition – broadly, the drop in the measured response relative to a control, in per cent – at 10 µg/mL was found to be 46.4%. The IC50 (commonly the concentration needed to halve the response being measured) in series [17] was 68 µM. The response, % of control at 5 µg/mL in series [18] amounted to 195%. The inhibition at 20 µg/mL in series [20] was 64.3%. Also, the inhibition at 5 µg/mL in series [22] stood at 27.8%. The molecule also gave a response, % of control at 10 µg/mL in [25] of 165%. The inhibition result in series [26] was “Active”. Besides, the result in series [32] was inactive. Also, the response, % of control at 20 µg/mL in [34] turned out to be 149%.
For the molecule VITAMIN E, in series [38], the inhibition entry is “Active”. Also, the inhibition in series [39] came to 76.2%. The outcome in [40] was Active.

For the origin of these results see ChEMBL document CHEMBL3352582, “Protective effects of aloe-emodin on scopolamine-induced memory impairment in mice and H₂O₂-induced cytotoxicity in PC12 cells” (Bioorg Med Chem Lett, 2014).
